Test results published in patent US8486900B2, “Method for preparing a Centella asiatica extract rich in madecassoside and in terminoloside” (Bayer Consumer Care AG, priority 2002, dated 2013).

How the values were obtained:
[1] = Immunomodulatory activity
[2] = tested on: human fibroblasts cultured in a three-dimensional gel of collagen; test: Cell viability (Neutral Red assay) of collagen gel fibroblast cultures after TNF-α; assay type: cell-based; conditions: TNF-α 10 ng/ml, 0.2-1.0 mg/ml
Protocol: (§1) The study was carried out on human fibroblasts cultured in a three-dimensional gel of collagen (dermous equivalent).
(§2) 3. Measurement of cell viability and of the amounts of MMP-1 in the control and treated culture supernatants.
Cell Viability (Neutral Red Assay)

MMP-1 = test: TNF-α-induced production of MMP-1 by human fibroblasts in collagen gel (dermis equivalent); assay type: cell-based; conditions: for Production of MMP-1, (+) TNF-α, mean: TNF-α 10 ng/ml, 24 h pretreatment + 24 h; for decrease in the amount of MMP-1: relative to (+)TNF-α control
Protocol: (§3) An in vitro experimental approach based on measuring the amounts of MMP-1 and of TIMP-1 released into the culture media by human fibroblasts cultured in the absence and in the presence of the products, and stimulated with TNF-α, is proposed. The study was carried out on human fibroblast cultures established from skin biopsies according to the explant method. The fibroblasts are cultured, according to the techniques used in the laboratory, in DMEM medium (sold under the name Invitrogen™ by the company Life Technologies) supplemented with fetal calf serum (10% FCS) and with antibiotics, at […] in a humid air-CO2 (95%-5%) atmosphere.
Human dermal fibroblasts cultured as a monolayer are detached from their support by trypsinization and suspended in complete medium. After counting, the cell suspension is diluted in culture medium and added, in defined proportions, to a mixture of concentrated culture medium (1.76×DMEM), fetal calf serum (FCS) and type I collagen (acetic acid extract from rat tail tendons). The mixture is then poured, under cold conditions, into 24-well plates in a proportion of 1 ml/well. The dermous equivalents are then placed at 37° C. and incubated for 72 h, in an air-CO2 (95%/5%) atmosphere. The gels gradually contract under the action of the fibroblasts.
72 hours after seeding, the culture medium is removed and replaced with new medium containing the various products being studied (“preventative” treatment). The gels are returned to the incubator at 37° C. and incubated, for 24 hours, in an air-CO2 (95%/5%) atmosphere.
(§4) After incubation, the plates are emptied. The cultures are rinsed and then exposed to a solution of TNF-α (10 ng/ml) in the absence (control cultures) or in the presence (treated cultures) of the various concentrations of each product being studied. After the addition of TNF-α, the cultures are returned to the incubator at 37° C. for 24 h. At the end of incubation, the media are removed, centrifuged and aliquoted for assaying of MMP-1 and of TIMP-1.
as §1
1. Treatment of cells for 24 h, before induction of MMP-1 with TNF-α.
2. Induction of MMP-1 by the addition of TNF-α (10 ng/ml). Incubation for 24 h.
as §2

TIMP-1 = test: Production of TIMP-1 by human fibroblasts in collagen gel stimulated with TNF-α; assay type: cell-based; conditions: for Production of TIMP-1, (+) TNF-α, mean: TNF-α 10 ng/ml
Protocol: as §3, §4
The amount of TIMP-1, an inhibitor specific for MMP-1, was also measured in the supernatants of the cultures treated with asiaticoside or the madecassoside-terminoloside mixture.

human fibroblasts = test: Cytotoxicity, Neutral Red assay on human fibroblasts; conditions: for Viability (24 h) / Viability (48 h): DMSO 1%
Protocol: A stock solution of the product was prepared beforehand in DMSO and then diluted in culture medium in order to obtain the various test solutions (final concentration of DMSO: 1%). A broad range of 8 concentrations [from 5 to 1000 μg/ml] was initially studied in order to close in the maximum NonCytotoxic Dose (NCD).
A stock solution of the product was prepared beforehand in DMSO and then diluted in culture medium in order to obtain the various test solutions (final concentration of the DMSO: 1%). A broad range of 8 concentrations (between […]) was studied on human fibroblasts in order to close in the maximum NonCytotoxic Dose (NCD).

**Q.** Which “immunomodulatory activity” value [1] does the source give for terminolic acid here?
**A.** The value was “no immunomodulatory activity”.

**Q.** What does the source list for C[C@H]1[C@H](C)CC[C@]2(C(=O)O[C@@H]3O[C@H](CO[C@@H]4O[C@H](CO)[C@@H](O[C@@H]5O[C@H](C)[C@H](O)[C@@H](O)[C@H]5O)[C@H](O)[C@H]4O)[C@@H](O)[C@H](O)[C@H]3O)CC[C@]3(C)C(=CC[C@@H]4[C@@]5(C)C[C@@H](O)[C@H](O)[C@@](C)(CO)[C@@H]5CC[C@]43C)[C@H]12 [Asiaticoside, asiaticoside]?
**A.** viability of the treated cultures after treatment with TNF-α [2]: not modified; solubility (Solubility): organosoluble; Production of MMP-1, (+) TNF-α, mean (MMP-1; 0.2 mg/ml): 9.96 ng MMP-1/ml; Production of MMP-1, (+) TNF-α, mean (MMP-1; 0.5 mg/ml): 6.18 ng MMP-1/ml; Production of MMP-1, (+) TNF-α, mean (MMP-1; 1.0 mg/ml): 3.40 ng MMP-1/ml; decrease in the amount of MMP-1 (MMP-1; C1 = 0.2 mg/ml): 18%; decrease in the amount of MMP-1 (MMP-1; C2 = 0.5 mg/ml): 49%; decrease in the amount of MMP-1 (MMP-1; C3 = 1.0 mg/ml): 72%; Production of TIMP-1, (+) TNF-α, mean (TIMP-1; 0.2 mg/ml): 51.01 ng TIMP-1/ml; Production of TIMP-1, (+) TNF-α, mean (TIMP-1; 0.5 mg/ml): 50.36 ng TIMP-1/ml; Production of TIMP-1, (+) TNF-α, mean (TIMP-1; 1.0 mg/ml): 48.82 ng TIMP-1/ml; effect with respect to the production of TIMP-1 (TIMP-1; within the range of concentrations tested (0.2-1.0 mg/ml)): no effect; Maximum NonCytotoxic Dose (NCD) (human fibroblasts): 1 mg/mL; decrease of cell viability (human fibroblasts; 48 h, 1 mg/ml): 12%; Viability (24 h) (human fibroblasts; 10): 98%; Viability (24 h) (human fibroblasts; 25): 101%; Viability (24 h) (human fibroblasts; 50): 101%; Viability (24 h) (human fibroblasts; 100): 101%; Viability (24 h) (human fibroblasts; 250): 101%; Viability (24 h) (human fibroblasts; 500): 97%; Viability (24 h) (human fibroblasts; 1000): 93%; Viability (48 h) (human fibroblasts; 48 h, 10): 108%; Viability (48 h) (human fibroblasts; 48 h, 25): 107%; Viability (48 h) (human fibroblasts; 48 h, 50): 106%; Viability (48 h) (human fibroblasts; 48 h, 75): 104%; Viability (48 h) (human fibroblasts; 48 h, 100): 102%; Viability (48 h) (human fibroblasts; 48 h, 250): 99%; Viability (48 h) (human fibroblasts; 48 h, 500): 93%; Viability (48 h) (human fibroblasts; 48 h, 750): 90%; Viability (48 h) (human fibroblasts; 48 h, 1000): 88%; cytotoxic effect (human fibroblasts; contact for 24 h, 5 to 1000 μg/ml): no significant cytotoxic effect; nontoxic concentrations (human fibroblasts; incubation for 48 h): below 1 mg/ml
